# Laboratory results from patent US9790229B2, “Bruton's tyrosine kinase inhibitors” (priority 2009, dated 2017).
# pIC50: −log10 of the molar value.
# Biological target: BTK (Homo sapiens (Human), UniProt Q06187)
# Experiment: In vitro BTK kinase assay: BTK-POLYGAT-LS ASSAY
# Conditions: not given
# Sequence of BTK (Q06187 whole entry): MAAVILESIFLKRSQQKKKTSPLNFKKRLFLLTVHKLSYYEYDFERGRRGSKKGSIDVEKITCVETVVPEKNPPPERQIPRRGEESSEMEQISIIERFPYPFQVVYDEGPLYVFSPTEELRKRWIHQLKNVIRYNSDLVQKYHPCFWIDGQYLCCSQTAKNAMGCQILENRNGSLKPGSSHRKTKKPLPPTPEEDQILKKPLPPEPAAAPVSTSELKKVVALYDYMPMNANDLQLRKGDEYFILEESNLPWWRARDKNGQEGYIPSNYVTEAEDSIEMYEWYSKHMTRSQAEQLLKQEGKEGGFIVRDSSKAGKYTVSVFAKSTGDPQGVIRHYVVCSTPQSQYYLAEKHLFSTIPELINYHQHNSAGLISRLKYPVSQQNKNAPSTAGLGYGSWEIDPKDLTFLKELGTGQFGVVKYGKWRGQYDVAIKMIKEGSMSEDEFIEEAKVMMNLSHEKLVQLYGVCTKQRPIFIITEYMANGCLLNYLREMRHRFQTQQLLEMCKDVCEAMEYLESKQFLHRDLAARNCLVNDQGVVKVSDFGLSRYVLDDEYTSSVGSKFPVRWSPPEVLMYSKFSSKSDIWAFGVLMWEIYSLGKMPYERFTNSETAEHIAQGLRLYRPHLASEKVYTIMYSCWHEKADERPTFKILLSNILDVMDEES
row,Structure (SMILES),pIC50
1,O=C(Nc1cccc(C2CCCN(c3ncnc4[nH]ccc34)C2)c1)Nc1cccc2cc[nH]c12 (stereo not drawn) [compound 211],5.00 to 6.00
2,"CC(C)c1cc(=O)nc(Nc2cccc(C3CCCN(c4ncnc5[nH]ccc45)C3)c2)[nH]1 (stereo not drawn) [compound 121, 2-(3-(1-(7H-pyrrolo[2,3-d]pyrimidin-4-yl)piperidin-3-yl)phenylamino)-6-isopropylpyrimidin-4(1H)-one]",5.00 to 6.00
3,O=C(Nc1cccc(C2CCCN(c3ncnc4[nH]ccc34)C2)c1)Nc1cccnc1Cl (stereo not drawn) [compound 202],5.00 to 6.00
4,Nc1ncnc(N2CCC[C@@H](N3CC[C@@H](Nc4cc(Cl)cc(Cl)c4)C3=O)C2)c1Cl [compound 354],6.00 to 7.00
5,"O=C(Nc1ccc(Cl)cc1)Nc1cccc(C2CCCN(c3ncnc4[nH]ccc34)C2)c1 (stereo not drawn) [Cmpd 27, 1-(3-(1-(7H-pyrrolo[2,3-d]pyrimidin-4-yl)piperidin-3-yl)phenyl)-3-(4-chlorophenyl)urea]",5.00 to 6.00
6,O=C(Nc1cccc(C2CCCN(c3ncnc4[nH]ccc34)C2)c1)NC1CCC1 (stereo not drawn) [compound 204],5.00 to 6.00
7,"CCCNc1ncnc(N2CCC[C@@H](N3CCCC(Nc4cc(F)cc(Cl)c4)C3=O)C2)c1F (stereo partly drawn) [compound 288, (3′R)-3-(3-Chloro-5-fluorophenylamino)-1′-(5-fluoro-6-(propylamino)pyrimidin-4-yl)-1,3′-bipiperidin-2-one]",5.00 to 6.00
8,CC(C)CCNC(=O)Nc1cccc(C2CCCN(c3ncnc4[nH]ccc34)C2)c1 (stereo not drawn) [compound 186],5.00 to 6.00
9,O=C(Nc1ccccc1)N[C@@H]1CCN(C2CCCN(c3ncnc4[nH]ccc34)C2)C1 (stereo partly drawn) [compound 220],5.00 to 6.00
10,O=C(Nc1cccc(C2CCCN(c3ncnc4[nH]ccc34)C2)c1)Nc1ccccc1N1C[C@@H](O)[C@H](O)C1 (stereo partly drawn) [compound 158],6.00 to 7.00
11,"CS(=O)(=O)c1ccccc1NC(=O)Nc1cccc(C2CCCN(c3ncnc4[nH]ccc34)C2)c1 (stereo not drawn) [Cmpd 64, 1-(3-(1-(7H-pyrrolo[2,3-d]pyrimidin-4-yl)piperidin-3-yl)phenyl)-3-(2-(methylsulfonyl)phenyl)urea]",5.00 to 6.00
12,"CCc1cccc(CC)c1NC(=O)Nc1cccc(C2CCCN(c3ncnc4[nH]ccc34)C2)c1 (stereo not drawn) [Cmpd 33, 1-(3-(1-(7H-pyrrolo[2,3-d]pyrimidin-4-yl)piperidin-3-yl)phenyl)-3-(2,6-diethylphenyl)urea]",6.00 to 7.00
13,O=C(NCc1cccc(C2CCCN(c3ncnc4[nH]ccc34)C2)c1)Nc1ccccc1 (stereo not drawn) [compound 216],5.00 to 6.00
14,Cc1ccnc(C)c1NC(=O)Nc1cccc(C2CCCN(c3ncnc4[nH]ccc34)C2)c1 (stereo not drawn) [compound 200],5.00 to 6.00
15,N#C/N=C(\Nc1cccc(C2CCCN(c3ncnc4[nH]ccc34)C2)c1)Nc1c(Cl)cccc1Cl (stereo not drawn) [compound 269],6.00 to 7.00
16,O=C(NCC1CCCC1)Nc1cccc(C2CCCN(c3ncnc4[nH]ccc34)C2)c1 (stereo not drawn) [compound 166],6.00 to 7.00
17,"CCNc1ncnc(N2CCC[C@@H](N3CCCC(Nc4cc(F)cc(Cl)c4)C3=O)C2)c1F (stereo partly drawn) [compound 287, (3′R)-3-(3-Chloro-5-fluorophenylamino)-1′-(6-(ethylamino)-5-fluoropyrimidin-4-yl)-1,3′-bipiperidin-2-one]",5.00 to 6.00
18,O=C(Nc1cccc(C2CCCN(c3ncnc4[nH]ccc34)C2)c1)NC1CCCC1 (stereo not drawn) [compound 193],5.00 to 6.00
19,"N#Cc1c(N)ncnc1N1CCCC(c2ccc(OC(F)(F)F)c(NC(=O)C3CCCCC3)c2)C1 (stereo not drawn) [compound 144, N-(5-(1-(6-amino-5-cyanopyrimidin-4-yl)piperidin-3-yl)-2-(trifluoromethoxy)phenyl)cyclohexanecarboxamide]",5.00 to 6.00
20,CCC(CC)CNC(=O)Nc1cccc(C2CCCN(c3ncnc4[nH]ccc34)C2)c1 (stereo not drawn) [compound 180],6.00 to 7.00
21,CC(C)(C)CNC(=O)Nc1cccc(C2CCCN(c3ncnc4[nH]ccc34)C2)c1 (stereo not drawn) [compound 196],5.00 to 6.00
22,"Nc1ncnc(N2CCCC(c3cccc(NC(=O)Nc4ccccc4)c3)C2)c1Cl (stereo not drawn) [Cmpd 99, 1-(3-(1-(6-Amino-5-chloropyrimidin-4-yl)piperidin-3-yl)phenyl)-3-phenylurea]",5.00 to 6.00
23,C[C@H]1CCCN1c1ccccc1NC(=O)Nc1cccc(C2CCCN(c3ncnc4[nH]ccc34)C2)c1 (stereo partly drawn) [compound 188],5.00 to 6.00
24,"O=C(Nc1cccc(C2CCCN(c3ncnc4[nH]ccc34)C2)c1)Nc1ccccc1C1CCCC1 (stereo not drawn) [Cmpd 48, 1-(3-(1-(7H-pyrrolo[2,3-d]pyrimidin-4-yl)piperidin-3-yl)phenyl)-3-(2-cyclopentylphenyl)urea]",6.00 to 7.00
25,"O=C(Nc1cccc(Cl)c1)Nc1cccc(C2CCCN(c3ncnc4[nH]ccc34)C2)c1 (stereo not drawn) [Cmpd 26, 1-(3-(1-(7H-pyrrolo[2,3-d]pyrimidin-4-yl)piperidin-3-yl)phenyl)-3-(3-chlorophenyl)urea]",5.00 to 6.00

# Same assay, conditions: read-out: IC50 (10 uM ATP); 10 uM ATP; in vitro Btk kinase assay, Example 41
row,Structure (SMILES),pIC50
1,CC(=O)N1CCC(CNC(=O)Nc2cccc(C3CCCN(c4ncnc5[nH]ccc45)C3)c2)CC1 (stereo not drawn) [compound 246],< 5.00
2,"O=C(Nc1csc(C2CCCN(c3ncnc4[nH]ncc34)C2)n1)Nc1ccccc1N1CCCC1 (stereo not drawn) [compound 110, 1-(2-(1-(1H-pyrazolo[3,4-d]pyrimidin-4-yl)piperidin-3-yl)thiazol-4-yl)-3-(2-(pyrrolidin-1-yl)phenyl)urea]",> 7.00
3,"O=C(CNc1ccccc1)Nc1cccc(C2CCCN(c3ncnc4[nH]ccc34)C2)c1 (stereo not drawn) [Cmpd 17, N-(3-(1-(7H-pyrrolo[2,3-d]pyrimidin-4-yl)piperidin-3-yl)phenyl)-2-(phenylamino) acetamide]",< 5.00
4,"N#Cc1c(N)ncnc1N1CCCC(c2nc(NC(=O)Nc3ccccc3N3CCCC3)cs2)C1 (stereo not drawn) [compound 109, 1-(2-(1-(6-amino-5-cyanopyrimidin-4-yl)piperidin-3-yl)thiazol-4-yl)-3-(2-(pyrrolidin-1-yl)phenyl)urea]",> 7.00
5,"CCOC(=O)c1ccccc1NC1CCCN([C@@H]2CCCN(c3ncnc(N)c3F)C2)C1=O (stereo partly drawn) [compound 295, Ethyl-2-((3′R)-1′-(6-amino-5-fluoropyrimidin-4-yl)-2-oxo-1,3′-bipiperidin-3-ylamino) benzoate]",< 5.00
6,"O=c1c(Nc2ccccc2)c(Nc2cccc(C3CCCN(c4ncnc5[nH]ccc45)C3)c2)c1=O (stereo not drawn) [Cmpd 69, 3-(3-(1-(7H-pyrrolo[2,3-d]pyrimidin-4-yl)piperidin-3-yl)phenylamino)-4-(phenylamino)cyclobut-3-ene-1,2-dione]",< 5.00
7,"O=C1C(NC2CCCC2)CCCN1[C@@H]1CCCN(c2ncnc3[nH]ccc23)C1 (stereo partly drawn) [compound 303, (3′R)-3-(Cyclopentylamino)-1′-(7H-pyrrolo[2,3-d]pyrimidin-4-yl)-1,3′-bipiperidin-2-one]",< 5.00
8,O=C(Nc1cccc(C2CCCN(c3ncnc4[nH]ccc34)C2)c1)Nc1ccccc1N1CCC[C@H]1CO (stereo partly drawn) [compound 152],> 7.00
9,Nc1ncnc(N2CC(N3CCCC(Nc4cc(F)cc(Cl)c4)C3=O)CC(F)(F)C2)c1F (stereo not drawn) [compound 359],> 7.00
10,"O=c1nc(Nc2cccc(C3CCCN(c4ncnc5[nH]ccc45)C3)c2)[nH]c2ccccc12 (stereo not drawn) [compound 119, 2-(3-(1-(7H-pyrrolo[2,3-d]pyrimidin-4-yl)piperidin-3-yl)phenylamino)quinazolin-4(1H)-one]",< 5.00
11,"CC(=O)Nc1cc(N2CCCC(c3cccc(NC(=O)Nc4ccccc4)c3)C2)ncn1 (stereo not drawn) [Cmpd 92, N-(6-(3-(3-(3-phenylureido)phenyl)piperidin-1-yl)pyrimidin-4-yl)acetamide]",< 5.00
12,"O=C(Nc1cccc(C2CCCN(c3ncnc4[nH]ccc34)C2)c1)c1cccc(O)c1 (stereo not drawn) [compound 15, N-(3-(1-(7H-pyrrolo[2,3-d]pyrimidin-4-yl)piperidin-3-yl)phenyl)-3-hydroxybenzamide]",< 5.00
13,"Cn1ccc2c(N3CCCC(c4cccc(NC(=O)Nc5ccccc5)c4)C3)ncnc21 (stereo not drawn) [Cmpd 93, 1-(3-(1-(7-methyl-7H-pyrrolo[2,3-d]pyrimidin-4-yl)piperidin-3-yl)phenyl)-3-phenylurea]",< 5.00
14,"CC(C)(C)N/C(=N/C#N)Nc1cccc(C2CCCN(c3ncnc4[nH]ccc34)C2)c1 (stereo not drawn) [Cmpd 78, (Z)-1-(3-(1-(7H-pyrrolo[2,3-d]pyrimidin-4-yl)piperidin-3-yl)phenyl)-3-tert-butyl-2-cyanoguanidine]",< 5.00
15,"Cc1ccc(NC(=O)c2ccccc2)cc1C1CCCN(c2ncnc3[nH]ccc23)C1 (stereo not drawn) [Cmpd 80, N-(3-(1-(7H-pyrrolo[2,3-d]pyrimidin-4-yl)piperidin-3-yl)-4-methylphenyl)benzamide]",< 5.00
16,"Nc1ncnc(N2CCC(C(F)(F)F)C(N3CC=CC[C@@H](Nc4cc(F)cc(Cl)c4)C3=O)C2)c1F (stereo partly drawn) [compound 349, trans (R,Z)-1-(-1-(6-amino-5-fluoropyrimidin-4-yl)-4-(trifluoromethyl)piperidin-3-yl)-3-(3-chloro-5-fluorophenylamino)-3,4-dihydro-1H-azepin-2(7H)-one]",> 7.00
17,"Nc1ncnc(N2CCC[C@@H](N3CCCC(NCC4CCCCC4)C3=O)C2)c1F (stereo partly drawn) [compound 293, (3′R)-1′-(6-Amino-5-fluoropyrimidin-4-yl)-3-(cyclohexylmethylamino)-1,3′-bipiperidin-2-one]",< 5.00
18,"COc1ccc(C(=O)Nc2cccc(C3CCCN(c4ncnc5[nH]ccc45)C3)c2)cc1 (stereo not drawn) [Cmpd 8, N-(3-(1-(7H-pyrrolo[2,3-d]pyrimidin-4-yl)piperidin-3-yl)phenyl)-4-methoxybenzamide]",< 5.00
19,"O=C(Nc1csc(C2CCCN(c3ncnc4[nH]ncc34)C2)n1)Nc1c(F)cc(F)cc1N1CCCC1 (stereo not drawn) [compound 112, 1-(2-(1-(1H-pyrazolo[3,4-d]pyrimidin-4-yl)piperidin-3-yl)thiazol-4-yl)-3-(2,4-difluoro-6-(pyrrolidin-1-yl)phenyl)urea]",> 7.00
20,"O=C1C(Nc2cc(Cl)cc(Cl)c2)CCCN1[C@@H]1CCCN(c2ncnc3[nH]ccc23)C1 (stereo partly drawn) [compound 276, (3′R)-3-(3,5-Dichloro-phenylamino)-1′-(7H-pyrrolo[2,3-d]pyrimidin-4-yl)-1,3′-bipiperidin-2-one]",> 7.00
21,O=C(NCC1CCNC1)Nc1cccc(C2CCCN(c3ncnc4[nH]ccc34)C2)c1 (stereo not drawn) [compound 233],< 5.00
22,NC(=O)Cc1ccccc1NC(=O)Nc1cccc(C2CCCN(c3ncnc4[nH]ccc34)C2)c1 (stereo not drawn) [compound 261],< 5.00
23,O=C1[C@@H](Nc2cc(Cl)cc(Cl)c2)CCN1[C@@H]1CCCN(c2ncnc3[nH]ccc23)C1 [compound 357],> 7.00
